According to patent US20210024981A1, “COMPOSITION FOR DETECTING DSRNAS, COMPRISING MEROCYANINE COMPOUND AND ISOMER THEREOF, AND METHOD FOR PROVIDING INFORMATION FOR DIAGNOSING CANCER, BY USING DSRNA EXPRESSION ANALYSIS” (KOREA ADVANCED INSTITUTE OF SCIENCE AND TECHNOLOGY, priority 2018, published 2021):
Entries after “also recorded” stand apart in the source; their conditions may differ. Values belong to the compound of their own block, whether it stands above or below them.

Key:
[1] = system: HeLa cervical cancer cells; test: Apoptosis observed under a microscope; format: cell-based; conditions: 5-AZA-CdR 500 nM, day 5
A375 melanoma cells [2] = test: dsRNA absorbance change rate after 5-AZA-CdR treatment; format: cell-based; conditions: 5-AZA-CdR 500 nM, days 0-7
Method: (§1) To compare the expression level of dsRNA between cancer cells and normal cells, total RNA was extracted by treating TRIsure reagents (Bioline) to 3 types of cancer cell lines (HeLa cervical cancer cells, HCT116 colorectal cancer cells and A549 lung cancer cells) and 2 types of normal cell lines (CCD-986sk cells and RPE-1 cells), respectively. The extracted total RNA (30 μg) was treated with RNase T1 (Worthington Inc.) in a volume of 1/10, and incubated at 37° C. for 30 minutes to remove ssRNA and rRNA. Then, dsRNA was purified using a phenol extraction method. The final concentration of the purified dsRNA was adjusted to 350 μM using tertiary distilled water, to which the spiropyran solution (12 μM, dissolved in tertiary distilled water) was added. After irradiating UV to the mixture, the rate of change in absorbance at 512 nm was measured for 2 minutes. The rate of change in absorbance was calculated in comparison with the control group using tertiary distilled water instead of dsRNA.
(§2) In addition, PANC-1 pancreatic cancer cells, MCF-7 breast cancer cells, A549 lung cancer cells and A375 melanoma cells were treated with 5-AZA-CdR (500 nM), respectively, and cultured for 24 hours. The medium was replaced with fresh medium and the cells were collected on days 0, 1, 3, 5 and 7 to isolate dsRNA. The rate of change in absorbance of dsRNA in cancer cells was measured in the same manner as described in Example 1.

A549 lung cancer cells [3] = test: as above; format: cell-based; conditions: 5-AZA-CdR 500 nM, days 0-7
Method: as §1, §2

[4] = system: PANC-1 pancreatic cancer cells; test: as above; format: cell-based; conditions: 5-AZA-CdR 500 nM, day 7 compared to day 0
Method: as §1, §2

[5] = system: MCF-7 breast cancer cells; test: as above; format: cell-based; conditions: 5-AZA-CdR 500 nM, day 7 compared to day 0
Method: as §1, §2

[6] = system: HCT116 colorectal cancer cells; test: Apoptosis observed under a microscope; format: cell-based; conditions: 5-AZA-CdR 500 nM, day 5
A375 melanoma cells [7] = test: Degree of apoptosis by MTT assay; format: cell-based; conditions: 5-AZA-CdR 500 nM
Method: (§3) HCT116 colorectal cancer cells, PANC-1 pancreatic cancer cells, MCF-7 breast cancer cells, A549 lung cancer cells and A375 melanoma cells were treated with 5-AZA-CdR in the same manner as described in Experimental Example <10-1>, and the degree of apoptosis was measured by MTT assay.

A549 lung cancer cells [8] = test: Degree of apoptosis by MTT assay; format: cell-based; conditions: 5-AZA-CdR 500 nM
Method: as §3

[9] = system: HCT116 colorectal cancer cells; test: Degree of apoptosis by MTT assay; format: cell-based; conditions: 5-AZA-CdR 500 nM
Method: as §3

[10] = system: PANC-1 pancreatic cancer cells; test: Degree of apoptosis by MTT assay; format: cell-based; conditions: 5-AZA-CdR 500 nM
Method: as §3

[11] = system: MCF-7 breast cancer cells; test: Degree of apoptosis by MTT assay; format: cell-based; conditions: 5-AZA-CdR 500 nM
Method: as §3

[12] = system: HCT116 colorectal cancer cells; test: dsRNA absorbance change rate after 5-AZA-CdR treatment; format: cell-based; conditions: 5-AZA-CdR 500 nM 24 hours, days 0, 1, 3 and 5
Method: as §1
(§4) HCT116 colorectal cancer cells and HeLa cervical cancer cells were treated with 5-AZA-CdR (500 nM), respectively, and cultured for 24 hours. The medium was replaced with fresh medium and the cells were collected on days 0, 1, 3 and 5 to isolate dsRNA. The rate of change in absorbance of dsRNA in cancer cells was measured in the same manner as described in Experimental Example 9.

[13] = system: HeLa cervical cancer cells; test: as above; format: cell-based; conditions: 5-AZA-CdR 500 nM 24 hours, day 5 vs day 0
Method: as §1, §4

[14] = system: ERV (THE1B, MTL2B4, MLT1C49 and MER21C) in HCT116 colorectal cancer cells; test: RT-PCR (qPCR) to confirm ERV expression; format: cell-based; conditions: 5-AZA-CdR 500 nM
Method: According to a recent study, 5-AZA-CdR has been reported to promote apoptosis by increasing untranslated RNA called ERV (endogenous retroviral element), the dsRNA. Thus, whether the expression of ERV ([…], MTL2B4, MLT1C49 and MER21C genes) was increased by 5-AZA-CdR treatment was investigated.
Total RNA was isolated from the HCT116 colorectal cancer cells treated with 5-AZA-CdR in the same manner as described in Experimental Example <10-1>, to which DNase I was treated, and then cDNA was synthesized using RevertAid reverse transcriptase (Thermo Fisher Scientific). Using the synthesized cDNA as a template, qPCR was performed with the primers in Table 1 below.

poly AU and poly GC = test: Effect of dsRNA on reversibility of SP and MC; format: physicochemical; conditions: 200 μM poly AU or poly GC in sodium ion buffer; UV and 420 nm light alternately, 5 cycles at 1 minute intervals
Method: The SP and MC in the isomer relationship can be converted reversibly to each other by irradiating UV or visible light. To confirm the effect of dsRNA on the reversibility of SP-MC, SP and 200 μM poly AU and poly GC were added to sodium ion buffer, respectively, and absorbance was measured by alternately irradiating the mixture with UV and 420 nm […] light in 5 cycles at 1 minute intervals. At this time, water was used instead of RNA as the control.

[15] = system: dsRNA (20 bp poly GC and poly AU); test: Binding of spiropyran (SP) or merocyanine (MC) and dsRNA, UV-Vis spectrometer; conditions: 12 μM solution, 20 bp poly GC and poly AU added, MC after 254 nm UV for 5 minutes
Method: The interaction of spiropyran (SP) or merocyanine (MC) with dsRNA was confirmed using a UV-Vis spectrometer. The spiropyran produced in Example 1 was prepared as a spiropyran solution (12 μM), and dsRNA was prepared by ordering 20 bp poly GC and poly AU from Bioneer Co., Ltd., respectively. After adding 200 μM of poly GC and poly AU to the spiropyran solution, spectral results were obtained using a UV-Vis spectrometer. The spiropyran produced in Example 1 was prepared as a spiropyran solution (12 μM), and dsRNA was prepared by ordering 20 bp poly GC and poly AU from Bioneer Co., Ltd., respectively. After irradiating 254 nm UV to the spiropyran solution for 5 minutes, poly GC and poly AU were added, respectively. Then, spectral results were obtained using a UV-Vis spectrometer.

Structure (SMILES): Nc1ncn([C@H]2C[C@H](O)[C@@H](CO)O2)c(=O)n1 [Example 5-AZA-CdR, 5-aza-2′-deoxycytidine]
- apoptosis [1]: apoptosis was not observed
- dsRNA expression (rate of change in absorbance) (A375 melanoma cells [2]): no change; also recorded: little change
- dsRNA expression (rate of change in absorbance) (A549 lung cancer cells [3]): no change; also recorded: little change
- dsRNA expression (rate of change in absorbance) [4]: slightly increased; also recorded: slight increase
- dsRNA expression (rate of change in absorbance) [5]: slightly increased; also recorded: slight increase
- apoptosis [6]: apoptosis induced by 5-AZA-CdR was observed
- growth compared to untreated control (A375 melanoma cells [7]): not reduced
- growth decreased compared to untreated control (A549 lung cancer cells [8]): about 10%
- growth reduced compared to untreated control [9]: about 40%
- growth decreased compared to untreated control [10]: about 20%
- growth decreased compared to untreated control [11]: about 20%
- rate of change in absorbance at 512 nm (dsRNA expression) [12]: increased from day 3; also recorded: gradually increased with time
- rate of change in absorbance at 512 nm (dsRNA expression) [13]: almost unchanged; also recorded: almost similar to that of day 0
- expression level of MER21C, increase compared to day 0 ([14]; day 5): 100 times
- expression levels of THE1B, MTL2B4, MLT1C49 and MER21C ([14]; days 0 and 1): almost unchanged
- expression levels of THE1B, MTL2B4, MLT1C49 and MER21C ([14]; from day 3): increased; also recorded: began to increase from day 3

- binding to dsRNA (change in UV-Vis absorbance spectrum) [15]: did not bind to dsRNA
- binding to dsRNA (change in UV-Vis absorbance spectrum) ([15]; listed as spiropyran): not combined with dsRNA
Structure (SMILES): CC1(C)c2ccccc2N(CCC[N+](C)(C)C)C12C=Cc1cc([N+](=O)[O-])ccc1O2 (stereo not shown) [SP, 1′-(3″-trimethylammoniopropyl)-3′,3′-dimethyl-6-nitrospiro[(2H)-1-benzopyran-2,2′-indoline]iodide]
- reversibility of SP-MC (poly AU and poly GC): maintained independently from the presence or absence of dsRNA
